We go through 17 compounds from ChEMBL document CHEMBL1143964, “Novel pyrazolo[1,5-a]pyrimidines as c-Src kinase inhibitors that reduce IKr channel blockade” (Bioorg Med Chem, 2008).

A value given as a limit tells only on which side of the number the result lay.

Series [1] deals with T1, Proto-oncogene tyrosine-protein kinase Src (Homo sapiens, UniProt P12931). The series is described as follows: Inhibition of human cSrc.
A short description of series [2]: Drug level in Sprague-Dawley rat plasma at 3 mg/kg, iv after 1 hr. The class given is ADME, organism-based. More on the design: dose 3 mg/kg, route intravenous.
The target of series [3] is T2, IKr channel (Oryctolagus cuniculus, UniProt Q28705). In words: Inhibition of Ikr channel in rabbit ventricular myocytes at 30 uM.
Series [4] in a line: Drug level in Sprague-Dawley rat brain at 3 mg/kg, iv after 1 hr. More on the design: dose 3 mg/kg, route intravenous. In kind it is ADME, organism-based. To be noted: read-out: Drug uptake.
For series [5], the target named is T1, Proto-oncogene tyrosine-protein kinase Src. The series is described as follows: Inhibition of human cSrc in COS7 cells by ELISA. The class given is cell-based, COS-7. A general note: ELISA stands for enzyme-linked immunosorbent assay.
The nature of series [6]: Ratio of drug level in brain to plasma in Sprague-Dawley rat at 3 mg/kg, iv after 1 hr. In kind it is ADME, organism-based. More on the design: dose 3 mg/kg, route intravenous. To be noted: read-out: BPR.
In series [7] the target is T2, IKr channel. The series is described as follows: Inhibition of Ikr channel in rabbit ventricular myocytes at 10 uM. In kind it is cell-based, Ventricular myocyte.
In series [8] the target is Tyrosine-protein kinase Lck (Homo sapiens, UniProt P06239).
In series [9] the target is Protein kinase C beta type (Homo sapiens, UniProt P05771). In words: Inhibition of PKCbeta.
Series [10] is described as follows: Half life in Sprague-Dawley rat middle cerebral artery occlusion model at 3 mg/kg, iv. The class given is ADME, organism-based. Further details: dose 3 mg/kg, route intravenous. To be noted: in vivo.
For series [11], the target named is T3, Tyrosine-protein kinase ZAP-70 (Homo sapiens, UniProt P43403).
T3 sequence (P43403 whole entry): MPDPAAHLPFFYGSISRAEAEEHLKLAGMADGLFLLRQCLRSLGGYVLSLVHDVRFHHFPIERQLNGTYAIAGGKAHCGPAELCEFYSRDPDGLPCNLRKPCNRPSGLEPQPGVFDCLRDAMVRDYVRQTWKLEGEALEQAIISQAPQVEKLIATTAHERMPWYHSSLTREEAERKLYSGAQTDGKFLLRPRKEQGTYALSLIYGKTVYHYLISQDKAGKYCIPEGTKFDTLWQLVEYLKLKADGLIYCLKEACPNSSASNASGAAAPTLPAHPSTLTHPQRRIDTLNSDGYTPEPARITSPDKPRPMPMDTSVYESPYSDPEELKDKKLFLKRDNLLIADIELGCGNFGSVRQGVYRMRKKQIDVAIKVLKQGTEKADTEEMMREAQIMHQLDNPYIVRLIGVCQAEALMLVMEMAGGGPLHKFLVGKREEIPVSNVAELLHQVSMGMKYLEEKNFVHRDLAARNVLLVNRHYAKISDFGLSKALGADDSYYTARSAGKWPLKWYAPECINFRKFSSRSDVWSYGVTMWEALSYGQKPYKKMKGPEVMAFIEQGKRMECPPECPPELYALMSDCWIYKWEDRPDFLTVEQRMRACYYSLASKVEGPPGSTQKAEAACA
In words: Inhibition of ZAP.

The target of series [12] is Tyrosine-protein kinase SYK (Homo sapiens, UniProt P43405). In words: Inhibition of Syk.
Series [13] can be described thus: Clearance in Sprague-Dawley rat middle cerebral artery occlusion model at 3 mg/kg, iv. In kind it is ADME, organism-based. To be noted: in vivo. Further details: dose 3 mg/kg, route intravenous.
For series [14], the target named is Epidermal growth factor receptor (Homo sapiens, UniProt P00533).
The nature of series [15]: Volume of distribution at steady state in Sprague-Dawley rat middle cerebral artery occlusion model at 3 mg/kg, iv. In kind it is ADME, organism-based. More on the design: dose 3 mg/kg, route intravenous. To be noted: in vivo, read-out: Vdss.
The nature of series [16]: AUC (0 to infinity) in Sprague-Dawley rat middle cerebral artery occlusion model at 3 mg/kg, iv. In kind it is ADME, organism-based. Further details: time infinity, dose 3 mg/kg, route intravenous. To be noted: in vivo.
Series [17] concerns the target Vascular endothelial growth factor receptor 2 (Homo sapiens, UniProt P35968). In words: Inhibition of KDR.

T2 sequence (Q28705 whole entry): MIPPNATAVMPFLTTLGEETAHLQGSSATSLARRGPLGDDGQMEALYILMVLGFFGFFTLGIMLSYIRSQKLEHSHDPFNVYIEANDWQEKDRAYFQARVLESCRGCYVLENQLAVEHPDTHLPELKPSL
T1 sequence (P12931 2-536 limits assumed): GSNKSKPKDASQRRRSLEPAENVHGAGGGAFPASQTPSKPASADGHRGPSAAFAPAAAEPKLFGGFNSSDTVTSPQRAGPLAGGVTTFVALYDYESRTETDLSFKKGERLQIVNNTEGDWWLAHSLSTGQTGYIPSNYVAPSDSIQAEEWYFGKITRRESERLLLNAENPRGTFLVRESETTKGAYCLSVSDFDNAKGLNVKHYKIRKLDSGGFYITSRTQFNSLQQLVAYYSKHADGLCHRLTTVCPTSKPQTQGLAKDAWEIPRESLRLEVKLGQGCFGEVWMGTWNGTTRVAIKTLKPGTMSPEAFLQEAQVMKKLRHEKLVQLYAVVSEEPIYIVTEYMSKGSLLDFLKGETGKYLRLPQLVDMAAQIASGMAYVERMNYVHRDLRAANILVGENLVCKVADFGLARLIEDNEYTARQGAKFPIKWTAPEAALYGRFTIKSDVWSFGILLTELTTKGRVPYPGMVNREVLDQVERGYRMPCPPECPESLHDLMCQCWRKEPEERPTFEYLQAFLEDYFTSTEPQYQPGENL
Chain of Vascular endothelial growth factor receptor 2 (P35968 whole entry): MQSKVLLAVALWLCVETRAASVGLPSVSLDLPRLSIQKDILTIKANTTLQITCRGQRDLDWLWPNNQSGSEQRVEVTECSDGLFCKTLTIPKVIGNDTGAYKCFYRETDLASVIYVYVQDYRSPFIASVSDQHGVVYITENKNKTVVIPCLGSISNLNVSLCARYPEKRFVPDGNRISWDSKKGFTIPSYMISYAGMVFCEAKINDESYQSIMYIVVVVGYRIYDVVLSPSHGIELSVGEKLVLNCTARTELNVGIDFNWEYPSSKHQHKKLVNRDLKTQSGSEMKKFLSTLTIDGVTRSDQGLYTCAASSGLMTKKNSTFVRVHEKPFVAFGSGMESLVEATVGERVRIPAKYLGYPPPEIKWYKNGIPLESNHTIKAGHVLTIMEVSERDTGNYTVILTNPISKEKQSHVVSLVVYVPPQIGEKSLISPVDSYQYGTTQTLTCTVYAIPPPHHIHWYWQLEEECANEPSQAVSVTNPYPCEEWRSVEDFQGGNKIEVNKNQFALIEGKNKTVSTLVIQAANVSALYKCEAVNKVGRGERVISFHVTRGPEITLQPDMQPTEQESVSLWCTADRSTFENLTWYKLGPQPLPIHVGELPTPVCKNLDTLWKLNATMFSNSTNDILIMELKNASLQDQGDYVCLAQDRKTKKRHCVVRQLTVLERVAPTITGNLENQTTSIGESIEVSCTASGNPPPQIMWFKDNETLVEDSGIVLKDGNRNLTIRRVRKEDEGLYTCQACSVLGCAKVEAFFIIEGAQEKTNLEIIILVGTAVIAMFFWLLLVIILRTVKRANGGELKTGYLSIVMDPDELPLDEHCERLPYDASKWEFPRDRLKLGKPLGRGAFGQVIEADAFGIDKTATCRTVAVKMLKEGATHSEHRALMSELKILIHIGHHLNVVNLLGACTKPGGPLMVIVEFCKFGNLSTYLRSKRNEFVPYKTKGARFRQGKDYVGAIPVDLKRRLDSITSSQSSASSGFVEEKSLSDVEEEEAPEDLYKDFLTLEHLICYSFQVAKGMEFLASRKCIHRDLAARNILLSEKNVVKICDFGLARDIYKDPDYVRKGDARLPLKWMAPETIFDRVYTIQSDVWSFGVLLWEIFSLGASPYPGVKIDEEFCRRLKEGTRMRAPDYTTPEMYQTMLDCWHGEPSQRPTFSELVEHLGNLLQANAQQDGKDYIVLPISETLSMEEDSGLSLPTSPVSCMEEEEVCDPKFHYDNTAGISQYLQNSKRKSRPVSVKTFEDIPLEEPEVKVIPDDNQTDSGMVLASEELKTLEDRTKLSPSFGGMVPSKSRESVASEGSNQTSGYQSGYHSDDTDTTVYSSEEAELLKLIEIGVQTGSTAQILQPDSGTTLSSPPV
Chain of Protein kinase C beta type (P05771 whole entry): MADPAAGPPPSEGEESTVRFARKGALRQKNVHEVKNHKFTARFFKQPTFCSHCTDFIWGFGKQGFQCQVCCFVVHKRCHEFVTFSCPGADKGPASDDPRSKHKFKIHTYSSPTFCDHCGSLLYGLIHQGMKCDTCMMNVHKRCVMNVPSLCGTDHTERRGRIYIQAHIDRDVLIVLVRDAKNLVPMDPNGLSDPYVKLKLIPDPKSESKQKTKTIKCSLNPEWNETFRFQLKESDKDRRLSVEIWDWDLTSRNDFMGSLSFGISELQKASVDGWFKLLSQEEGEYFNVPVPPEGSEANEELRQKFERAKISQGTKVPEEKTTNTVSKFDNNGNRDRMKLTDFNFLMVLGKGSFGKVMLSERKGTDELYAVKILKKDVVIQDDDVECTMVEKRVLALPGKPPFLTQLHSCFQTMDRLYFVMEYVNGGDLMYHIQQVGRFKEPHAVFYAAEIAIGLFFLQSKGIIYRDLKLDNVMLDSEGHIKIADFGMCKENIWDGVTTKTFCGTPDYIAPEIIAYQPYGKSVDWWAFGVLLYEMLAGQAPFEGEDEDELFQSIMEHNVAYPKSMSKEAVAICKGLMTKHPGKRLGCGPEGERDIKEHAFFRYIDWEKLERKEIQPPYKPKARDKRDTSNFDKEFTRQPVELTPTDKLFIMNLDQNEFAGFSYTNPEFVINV
Chain of Tyrosine-protein kinase Lck (P06239 whole entry): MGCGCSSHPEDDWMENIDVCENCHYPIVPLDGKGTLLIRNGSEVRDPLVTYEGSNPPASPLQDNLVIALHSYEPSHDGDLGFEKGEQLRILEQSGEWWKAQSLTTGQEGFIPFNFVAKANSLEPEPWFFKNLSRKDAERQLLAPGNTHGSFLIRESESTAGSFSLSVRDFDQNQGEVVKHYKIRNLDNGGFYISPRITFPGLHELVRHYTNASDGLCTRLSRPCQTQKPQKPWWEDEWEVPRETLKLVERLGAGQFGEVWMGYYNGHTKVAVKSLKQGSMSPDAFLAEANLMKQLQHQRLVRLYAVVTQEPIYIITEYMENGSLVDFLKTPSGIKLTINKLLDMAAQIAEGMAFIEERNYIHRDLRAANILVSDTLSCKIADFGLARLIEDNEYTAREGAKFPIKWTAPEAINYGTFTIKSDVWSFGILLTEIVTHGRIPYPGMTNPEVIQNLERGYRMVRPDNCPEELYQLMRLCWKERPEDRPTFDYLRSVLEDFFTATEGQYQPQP
Chain of Epidermal growth factor receptor (P00533 whole entry): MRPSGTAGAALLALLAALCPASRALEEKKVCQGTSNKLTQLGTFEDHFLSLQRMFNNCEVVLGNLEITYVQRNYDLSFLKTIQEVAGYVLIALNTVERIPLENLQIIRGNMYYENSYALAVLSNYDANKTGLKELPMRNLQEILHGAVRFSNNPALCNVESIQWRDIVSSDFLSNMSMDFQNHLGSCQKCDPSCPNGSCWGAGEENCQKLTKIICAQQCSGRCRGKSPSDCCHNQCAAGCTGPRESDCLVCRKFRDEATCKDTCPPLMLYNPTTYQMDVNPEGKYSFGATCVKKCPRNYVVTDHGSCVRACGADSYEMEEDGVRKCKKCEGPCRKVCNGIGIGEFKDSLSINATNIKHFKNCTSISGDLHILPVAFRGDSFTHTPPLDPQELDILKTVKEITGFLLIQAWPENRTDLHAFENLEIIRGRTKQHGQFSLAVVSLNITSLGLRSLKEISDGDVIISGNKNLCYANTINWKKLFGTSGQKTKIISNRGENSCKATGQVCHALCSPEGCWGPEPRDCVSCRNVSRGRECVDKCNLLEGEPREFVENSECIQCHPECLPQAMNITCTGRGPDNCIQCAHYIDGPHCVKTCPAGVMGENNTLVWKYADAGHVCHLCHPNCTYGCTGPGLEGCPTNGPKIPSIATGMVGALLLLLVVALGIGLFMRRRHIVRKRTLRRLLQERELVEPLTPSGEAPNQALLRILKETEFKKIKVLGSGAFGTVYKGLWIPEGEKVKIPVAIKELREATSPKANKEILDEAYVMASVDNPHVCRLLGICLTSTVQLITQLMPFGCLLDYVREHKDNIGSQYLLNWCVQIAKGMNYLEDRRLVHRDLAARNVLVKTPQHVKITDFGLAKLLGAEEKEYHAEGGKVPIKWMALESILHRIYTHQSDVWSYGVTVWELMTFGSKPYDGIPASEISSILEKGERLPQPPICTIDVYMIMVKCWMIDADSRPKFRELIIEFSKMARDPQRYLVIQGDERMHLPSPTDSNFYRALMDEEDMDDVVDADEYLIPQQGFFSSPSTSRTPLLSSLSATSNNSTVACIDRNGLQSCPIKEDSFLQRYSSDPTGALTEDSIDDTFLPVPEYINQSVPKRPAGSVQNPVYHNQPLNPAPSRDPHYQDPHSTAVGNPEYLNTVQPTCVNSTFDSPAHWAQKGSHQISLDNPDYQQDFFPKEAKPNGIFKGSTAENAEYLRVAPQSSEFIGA

In turn, `COc1cc(Nc2nn3c(NC[C@@H](C)O)cc(C)nc3c2C(N)=O)cc(OC)c1` came in with a half-inhibitory concentration (IC50) in series [1] of 6690 nM.
As for `COc1cc(Nc2nn3c(N[C@H](CO)Cc4c[nH]c5ccccc45)cc(C4CC4)nc3c2C(N)=O)cc(OC)c1`, the concentration at 1 h amounted to 80 ng/mL in series [2] and 89 ng/g in [4]. The compound also returned an inhibition at 30 µM in [3] of 5.4%. Further, the IC50 in series [5] turned out to be 500 nM; in series [1], 5 nM. In [6], the Kp at 1 h came to 1.1.
Take `COc1cc(Nc2nn3c(N[C@@H](CO)C(C)C)cc(-c4ccccc4)nc3c2C(N)=O)cc(OC)c1`: at 30 µM the inhibition in series [3] was 12.4%. Further, in [1], the IC50 worked out at 68 nM.
In turn, `COc1cc(Nc2nn3c(NC[C@@H](C)N)cc(C)nc3c2C(N)=O)cc(OC)c1` displayed an inhibition at 10 µM in series [7] of 47.9%. The IC50 in series [1] worked out at 408 nM.
For the compound `COc1cc(Nc2nn3c(N[C@@H](CO)C(C)C)cc(C4CC4)nc3c2C(N)=O)cc(OC)c1`, the concentration at 1 h came to 346 ng/mL in series [2] and 126 ng/g in series [4]. The IC50 in [5] amounted to 100 nM; in series [1], 8 nM. Besides, in [6], the Kp at 1 h was found to be 0.4.
In series [7], `COc1cc(Nc2nn3c(NC[C@H](C)N)cc(C)nc3c2C(N)=O)cc(OC)c1` had an inhibition at 10 µM of 99.1%. This compound showed a half-maximal inhibitory concentration (IC50) in series [1] of 2990 nM.
Compound `COc1cc(Nc2nn3c(N[C@@H](C)CO)cc(C)nc3c2C(N)=O)cc(OC)c1` displayed an IC50 in [1] of 3480 nM.
In series [1], `COc1cc(Nc2nn3c(N[C@H](CO)C(C)C)cc(C)nc3c2C(N)=O)cc(OC)c1` had an IC50 of 1210 nM.
As for `COc1cc(Nc2nn3c(NCC(C)(C)N)cc(C)nc3c2C(N)=O)cc(OC)c1`, the figures for the IC50 in series [5] and in series [1] were 900 nM and 175 nM, respectively. The same compound displayed an inhibition at 10 µM in [7] of 90.7%.
The compound `COc1cc(Nc2nn3c(N[C@@H](CO)C(C)C)cc(C)nc3c2C(N)=O)cc(OC)c1` yielded a half-maximal inhibitory concentration (IC50) in series [1] of 432 nM.
Compound `COc1cc(Nc2nn3c(N[C@H](CO)Cc4cccnc4)cc(C4CC4)nc3c2C(N)=O)cc(OC)c1` showed a concentration at 1 h in series [2] of 81 ng/mL. The values for the concentration for half-maximal inhibition (IC50) in series [5] and in series [1] were 100 nM and 5 nM, respectively.
In the case of `COc1cc(Nc2nn3c(NC[C@H](C)O)cc(C)nc3c2C(N)=O)cc(OC)c1`, it took 9200 nM to reach half-maximal inhibition in series [1] (IC50).
In series [1], `COc1cc(Nc2nn3c(N4CCC[C@H]4CO)cc(C4CC4)nc3c2C(N)=O)cc(OC)c1` registered a concentration for half-maximal inhibition (IC50) of 25 nM.
Take `COc1cc(Nc2nn3c(N[C@H](CO)Cc4ccccc4)cc(C4CC4)nc3c2C(N)=O)cc(OC)c1`: the IC50 was 7 nM in series [8]; over 10000 nM in series [9]; over 10000 nM in series [11]; over 10000 nM in [12]; 100 nM in series [5]; 2400 nM in series [14]. Further, the 50% inhibitory concentration (IC50) in series [17] was over 10000 nM; in series [1], 3 nM. For the same compound, the concentration at 1 h in series [2] was determined as 273 ng/mL; in [4], 256 ng/g. This compound also gave an inhibition at 30 µM in [3] of 23.4%. The compound also yielded a half-life in series [10] of 22 min. For the same compound, the clearance in series [13] stood at 25 mL/min/kg. For the same compound, the Kp at 1 h in [6] was 0.9. Besides, the Vd in series [15] came to 0.53 L/kg. In series [16], this compound showed an area under the curve AUC(0-inf) of 1990 ng·h/mL.
For `COc1cc(Nc2nn3c(N[C@@H](CO)C(C)C)cc(C(C)C)nc3c2C(N)=O)cc(OC)c1`, the inhibition at 30 µM in [3] turned out to be 14.6%. In addition, in series [1], inhibition was half-maximal at 41 nM (IC50).
The compound `COc1cc(Nc2nn3c(N4CCC[C@@H]4CO)cc(C4CC4)nc3c2C(N)=O)cc(OC)c1` gave an inhibition at 30 µM in [3] of 14.2%. This compound also displayed a half-maximal inhibitory concentration (IC50) in series [1] of 9 nM.
`COc1cc(Nc2nn3c(N[C@@H](CO)Cc4ccccc4)cc(C4CC4)nc3c2C(N)=O)cc(OC)c1` came in with an IC50 in series [1] of 12 nM.

As a reminder, the IC50 is the midpoint of a concentration-inhibition curve. A high value points to lower potency. In general, inhibition refers to the relative decrease from the control value, in per cent. Higher therefore signals a strong effect. Usually half-life stands for how long it takes for the measured level to halve. High values mean slow loss, low ones fast loss. In general, clearance refers to a measure of how efficiently the substance is removed, as volume per time. Broadly, the AUC(0-inf) is the area under the concentration-time curve extrapolated to infinity. The low end stands for less exposure, the high end for more exposure.
